# From ChEMBL document CHEMBL2074436, “Hepatobiliary elimination of the peroxisome proliferator nafenopin by conjugation and subsequent ATP-dependent transport across the canalicular membrane” (Biochem Pharmacol, 1994)
# How the values were obtained:
# [1] = biological target: T1, ATP-binding cassette sub-family C member 2 (Rattus norvegicus, UniProt Q63120); experiment: TP_TRANSPORTER: inhibition of Naf-GlcA uptake (Naf-GlcA: 0.1 uM) in bile canalicular membrane vesicles of Wistar rat; type: functional, cell membranes, Bile canalicular membrane vesicle
# T1 sequence (Q63120 whole entry): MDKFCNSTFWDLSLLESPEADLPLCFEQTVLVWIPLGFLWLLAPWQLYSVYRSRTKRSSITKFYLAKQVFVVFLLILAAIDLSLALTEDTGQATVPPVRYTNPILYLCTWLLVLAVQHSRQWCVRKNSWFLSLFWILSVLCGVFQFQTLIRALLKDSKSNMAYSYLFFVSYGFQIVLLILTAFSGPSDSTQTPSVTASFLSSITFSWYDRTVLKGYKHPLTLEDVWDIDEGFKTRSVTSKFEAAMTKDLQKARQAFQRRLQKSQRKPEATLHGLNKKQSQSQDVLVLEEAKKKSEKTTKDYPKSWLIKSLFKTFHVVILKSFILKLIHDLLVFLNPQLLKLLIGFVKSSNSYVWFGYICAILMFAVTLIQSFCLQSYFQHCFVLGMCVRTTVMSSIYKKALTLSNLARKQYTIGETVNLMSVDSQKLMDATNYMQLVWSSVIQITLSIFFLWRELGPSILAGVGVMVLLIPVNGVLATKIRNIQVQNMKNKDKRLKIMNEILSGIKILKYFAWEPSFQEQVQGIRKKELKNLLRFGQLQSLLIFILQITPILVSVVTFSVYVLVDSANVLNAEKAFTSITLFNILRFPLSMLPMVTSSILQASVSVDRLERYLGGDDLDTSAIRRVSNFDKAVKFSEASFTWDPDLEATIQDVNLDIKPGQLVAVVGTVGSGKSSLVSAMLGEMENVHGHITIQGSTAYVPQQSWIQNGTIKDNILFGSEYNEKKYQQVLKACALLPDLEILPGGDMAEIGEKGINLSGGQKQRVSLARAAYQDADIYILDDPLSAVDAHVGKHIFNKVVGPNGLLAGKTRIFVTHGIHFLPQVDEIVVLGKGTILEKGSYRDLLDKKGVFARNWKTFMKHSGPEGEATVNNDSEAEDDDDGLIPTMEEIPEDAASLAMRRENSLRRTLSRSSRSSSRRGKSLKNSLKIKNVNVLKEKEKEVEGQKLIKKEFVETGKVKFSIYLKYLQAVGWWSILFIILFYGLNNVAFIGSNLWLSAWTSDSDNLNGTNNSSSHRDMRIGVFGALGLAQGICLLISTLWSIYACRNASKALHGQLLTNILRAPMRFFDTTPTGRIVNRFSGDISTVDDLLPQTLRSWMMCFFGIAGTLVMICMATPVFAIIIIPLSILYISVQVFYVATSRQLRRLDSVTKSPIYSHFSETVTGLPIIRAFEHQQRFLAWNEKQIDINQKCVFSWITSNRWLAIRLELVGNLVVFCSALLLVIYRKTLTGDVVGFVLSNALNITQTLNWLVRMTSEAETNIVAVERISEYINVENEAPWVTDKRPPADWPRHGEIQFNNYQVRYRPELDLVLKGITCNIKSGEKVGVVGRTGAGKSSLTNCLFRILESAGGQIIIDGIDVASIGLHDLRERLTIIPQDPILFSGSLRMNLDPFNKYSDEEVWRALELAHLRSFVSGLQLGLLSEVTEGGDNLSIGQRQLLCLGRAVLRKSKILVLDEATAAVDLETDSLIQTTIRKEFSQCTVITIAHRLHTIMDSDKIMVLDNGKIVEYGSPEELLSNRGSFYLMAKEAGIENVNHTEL
# [2] = biological target: T1, ATP-binding cassette sub-family C member 2; experiment: TP_TRANSPORTER: uptake in bile canalicular membrane vesicles from Wistar/TR- rat; type: functional, cell membranes, Bile canalicular membrane vesicle
Structure (SMILES),IC50 [1] [µM],Activity [2]
N[C@@H](CCC(=O)N[C@H](CSc1ccc([N+](=O)[O-])cc1[N+](=O)[O-])C(=O)NCC(=O)O)C(=O)O,12,–
CCCCC/C=C\C\C=C/C=C/C=C/[C@@H](SC[C@@H](NC(=O)CC[C@H](N)C(=O)O)C(=O)NCC(=O)O)[C@@H](O)CCCC(=O)O [LEUKOTRIEN C4],0.2,–
CC(C)(Oc1ccc(C2CCCc3ccccc32)cc1)C(=O)O[C@@H]1O[C@H](O)[C@@H](O)[C@H](O)[C@H]1O (stereo partly drawn) [NAFENOPIN GLUCURONIDE],–,substrate [+]
